Reference: US10759754B2, “Aminobenzoic acid derivatives for use as anti-inflammatory agents, anti-metastatic agents and/or anticancer agents” (3R VALO, S.E.C., priority 2016, dated 2020)
“Also recorded” adds a separate entry of the source.

Tests used:
MB49-I cells = test: Relative cell viability of MB49-I cells 24-hour post treatment; assay type: cell-based, murine; conditions: 3 h treatment, 0-50 μM
Experimental: (§1) Evaluation of cell proliferation by the MTT assay. […] Cells were pretreated for a period of 3 h with vehicle (DMSO) or derivatives 1 and 1A at 0, 10, 25, 37.5, and 50 μM, and then incubated for 24 h in the absence or the presence of INFγ and TNFα. At the end of the culture period, 10 μL of 5 mg/mL methylthiazolyldiphenyl-tetrazolium bromide (MTT) solution was added to each well. After a 3-h incubation period with MTT reagent, 100 μL of MTT solubilization buffer (10% SDS in 10 mM HCl) was added and plates were placed overnight in the cell incubator before absorbance measure. The optical density was read at 580 nm using the Microplate Reader Manager (from Bio-Rad Laboratories).

NFκB = test: NFκB-responsive luciferase assay in MB49-I cells; assay type: cell-based, murine; conditions: 50 μM
Source text: Luciferase assay. To assess the transcriptional activity of NFκB in response to TNFα, MB49-I cells cultured in monolayers (7.5×10^4 cells/well in 24-well plates) were transiently transfected with an expression vector allowing the transcription of the firefly luciferase reporter gene under the control of CMV promoter and tandem repeats of the NFκB transcriptional response element. The luciferase gene encodes a 61-kDa enzyme that oxidizes D-luciferin in the presence of ATP, oxygen, and Mg^++, yielding a […] product that can be quantified by measuring the released light. Transfection was performed using Opti-MEM reduced serum media and Lipofectamine 2000 (Thermo Fisher Scientific). Then, MB49-I cells were pretreated for 30 min with vehicle (DMSO) and compound 4 (at 10 μM or 30 μM); and then washed and recovered after 24 h of activation with 10 ng/mL or 50 ng/mL TNFα. Cell lysates were mixed with Luciferase assay reagent (a mixture of luciferine, coenzyme A, ATP and Mg^2+) and the light produced was measured using a luminometer.

[1] = tested on: IL6/STAT3 signaling pathway; test: Western blot of IL6/STAT3 signaling in MB49-I cells; assay type: cell-based, murine; conditions: doses as lower as 10 μM
Experimental: (§2) Cell signaling studies: THP1-derived human macrophages (750×10^3 cells/mL) and MB49-I cells (500×10^3 cells/mL) were pretreated for 30 min with vehicle (DMSO), compounds 4 and 5, at 10, 25 or 50 μM; and then washed and recovered immediately (t=0 min) or after 30 min of activation with 50 U/mL IFNγ, 25 ng/mL IL6, or 10 ng/mL TNFα. Cell lysates were prepared and analyzed by immunoblotting as described.^21-23,25 Briefly, protein samples were resolved by SDS-PAGE under reducing conditions and transferred onto a PVDF membrane. Blots were first probed with rabbit polyclonal antibodies against phospho-STAT1 (pSTAT1), pSTAT3, or p-IκB (all at 1:2000) overnight at 4° C. Blots were then incubated with HRP-conjugated goat anti-rabbit IgG Ab (1:3000) for 1 h at room temperature. The same blots were stripped and then probed with anti-STAT1 or anti-STAT3 Abs (both at 1:1000). In both cases, probed molecules were visualized using an enhancement chemiluminescence detection kit (Thermo Fisher Scientific).

[2] = tested on: TNFα/NFκB signaling pathway; test: Western blot of TNFα/NFκB signaling in MB49-I cells; assay type: cell-based, murine; conditions: doses as lower as 10 μM
Experimental: as §2

MHC-II = test: Flow cytometry of MHC-II surface antigen in IFNγ-activated human macrophages; assay type: cell-based; conditions: compound 4 at 10 μM, compound 5 at 25 μM
Experimental: Surface antigen expression analysis. To study membrane receptor expression, THP1-derived human macrophages (750×10^4 cells/mL) were pretreated for 3 h with DMSO or compounds 4 and 5, and then left untreated (control) or treated for 48 h with 50 U/mL IFNγ. The expression level of MHC-II and CD40 was evaluated by flow cytometry as described.^21-23

MDA-MB-241 cells = test: 3D spheroid-based tumor invasion assay; assay type: cell-based, human; conditions: 30 μM, day 4 vs day 0
Experimental: Cellular analysis of 3D spheroid-based tumor invasion assays. Cell preparation and spheroid formation were performed following the manufacturer instructions (Corning). Briefly, MDA-MB-231 cells were harvested and diluted to a concentration of 5×10^4 cells/mL in (complete) culture media supplemented with 10% serum. 100 μL of cell suspension was then pipetted to appropriate 96 well spheroid formation plate and placed at 37° C./5% CO2. Spheroid formation was monitored every 24 hours. The typical cell aggregation period was 48 hours. Upon spheroid formation completion, 70 μL of complete medium was removed from each well, and replaced by 70 μL of serum-free medium. This was repeated on a daily basis to create a serum starvation period of 48 hours. Matrigel matrix (100 μL) was then added to each well. The plate was centrifuged at 300×g for 5 minutes in a swinging bucket centrifuge. The plate was then transferred to a 37° C./5% CO2 incubator for one hour to initiate gel formation. Following the 1-hour gel formation incubation period, DMSO or compound 4 was added to appropriate wells during 60 minutes. After pretreatment, the media was removed and replaced by complete culture media, and then the media was changed every day for a period of 4 days. […] These protrusions were identified, and their area and perimeter properly quantified using the ImageJ software (National Institutes of Health).

MB49 cells = test: Relative cell viability of MB49 cells 24-hour post treatment; assay type: cell-based, murine; conditions: 3 h treatment, 0-50 μM
Experimental: as §1

C57Bl/6J mice = test: Acute toxicity study with episodic i.p. injections in C57Bl/6J mice; assay type: in vivo
[3] = tested on: macrophage-like J774A.1 cells; test: IFNγ/TNFα-induced NO production (Griess) in J774A.1 cells; assay type: cell-based, murine; conditions: pretreatment then IFNγ and TNFα
Experimental: Evaluation of NO and Urea production by chemical methods. The MB49-I cells and the J774A.1 cells (25×10^3 cells/well) were grown and pretreated, as indicated, with various anti-inflammatory derivatives, precursors and mono-functional derivatives for a period of 3 h. Afterwards the cells were washed twice with 10% FBS RPMI-1640 and then activated to produce NO for a period of 24 h with cytokines INFγ and TNFα. NO production was measured using the Griess reagent method as previously described.^27 This method involves the detection of nitrite ions (NO2^−) formed by the spontaneous oxidation of NO under physiological conditions. According the manufacture procedure (Life Technologies; # G-7921), equal volumes of sulfanilic acid and N-(1-naphthyl)ethylenediamine are mixed together to form the Griess reagent. In the presence of NO2^−, sulfanilic acid is converted to a diazonium salt, which in turn is coupled to N-(1-naphthyl)ethylenediamine to produce a pink coloration that is measured with a spectrophotometer (Biotek, synergy HT) at 548 nm. In the same manner, urea synthesis through arginase-1 activity was measured using commercially available kit.

human UBC T24 cells = test: Motility (scratch) assay, IL6-induced, in T24 cells; assay type: cell-based; conditions: 30 μM
[4] = i.p. 0, 90, 150, 300 μM during 3 weeks

SMILES: CC(C)(C)OC(=O)NNC(=O)c1ccc(N2C(=O)C=CC2=O)cc1 [Compound 4, N′-[4-(2,5-dioxo-2,5-dihydro-pyrrol-1-yl)-benzoyl]-hydrazine carboxylic acid tert-butyl ester]
- relative cell viability / cell survival (MB49-I cells): stopping cell proliferation
- NFκB activation (luciferase assay) (NFκB): efficiently inhibited
- IL6/STAT3 signaling pathway (Western blot) [1]: inhibit; also recorded: efficiently inhibited
- TNFα/NFκB signaling pathway (Western blot) [2]: inhibit; also recorded: efficiently inhibited
- IFNγ-induced MHC-II expression (MHC-II): effective in reducing; also recorded: efficiently inhibited
- invasiveness activity in 3D spheroid-based tumor invasion assay (MDA-MB-241 cells): anti-invasion properties; also recorded: efficiently inhibited
- relative cell viability / cell survival (MB49 cells): stopping cell proliferation
- tolerability in mice (C57Bl/6J mice; concentrations up to 300 μM): well tolerated
- hematocrit (C57Bl/6J mice; [4]): no obvious effect
- normal development and viability (C57Bl/6J mice; [4]): no obvious effect
- organs weight (C57Bl/6J mice; [4]): no obvious effect
- liver histological analysis (hepatocellular injury, inflammation, fibrosis, steatosis) (C57Bl/6J mice; i.p. up to 300 μM during 3 weeks): no evidence of toxicity; also recorded: does not induce features of liver dysfunction
- combined IFNγ/TNFα-induced NO synthesis [3]: effective in reducing; also recorded: efficiently inhibited
- IL6-induced motility (scratch assay) (human UBC T24 cells): inhibit; also recorded: efficiently inhibited
